Test results from US11116725B2, “Nanoparticles carrying antibiotics” (UNIVERSITY OF SOUTH FLORIDA, priority 2017, dated 2021).
Values after ≈ are worked out from the molar mass of the structure shown.

How the values were obtained:
[1] = system: Staphylococcus aureus (ATCC 25923); test: 96-well plate broth assay, minimum inhibitory concentration (MIC); type: cell-based; conditions: ATCC25923, triplicate, 37° C., 16-20 hours, concentration as N-acryloylciprofloxacin, read-out: MIC vs S. aureus (ATCC 25923)
Protocol: (§1) Each assay was done in triplicate.
(§2) The original stock emulsion was diluted using the Trypticase Soy Broth solution to an initial concentration of 1.28 mg/ml of the N-acryloylciprofloxacin, then serial diluted with TSB to half the concentration each time. A volume of 10 μl of each emulsion dilution was added to a well in series, resulting in a final concentration run of 64 μg/ml to 0.012 μg/ml. The MIC was done in triplicates for each bacterium, with ciprofloxacin hydrochloride being used as a positive control and a blank of broth medium was used as a negative control.
(§3) Bacteria were grown overnight at 37° C. on an agar plate composed of BBL TSA II Trypticase Soy Agar (TSA) and BBL Trypticase Soy Broth (TSB) in a 1:2 ratio at 4.4% concentration. A broth solution of 2.4% TSB was inoculated using the bacteria from the agar plates, and incubated at 37° C. to reach a 0.5 McFarland standard. The bacteria were then further diluted by a factor of 1000 using a broth solution of 2.4% TSB, and 190 μl of the diluted bacterial solution was transferred by micropipette into each well.

Escherichia coli (K12) = test: as above; type: cell-based; conditions: triplicate, 37° C., 16-20 hours, concentration as N-acryloylciprofloxacin, read-out: MIC vs E. coli (K12)
Protocol: as §1, §2, §3

[2] = Solubility in organic solvents; type: physicochemical
Protocol: This method was attempted using methanol, ethanol, ethyl acetate, and dichloromethane. […] However, there was a critical issue that resulted with the polymerization procedure. Typically, organics were stirred at 75° C., then the surfactant and water were added. This would cause the dichloromethane to rapidly evaporate.

MIC [1] [µg/mL]	MIC (Escherichia coli (K12)) [µg/mL]	SMILES	solubility in dichloromethane [2]
0.5 (≈ 1.51 µM)	0.012 (≈ 0.0362 µM)	O=C(O)c1cn(C2CC2)c2cc(N3CCNCC3)c(F)cc2c1=O [Control Ciprofloxacin, ciprofloxacin]	
		C=CC(=O)N1CCN(c2cc3c(cc2F)c(=O)c(C(=O)O)cn3C2CC2)CC1 [N-acryloylciprofloxacin]	Up to 500 mg/ml
